Data as given in PubChem BioAssay (NCI).
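Protocol summary: plate cells (96-well), add compound at 5 concentrations, incubate 48 h, interpolate endpoints linearly. The concentration for 50% growth inhibition is given as GI50. TGI marks complete inhibition of growth.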

How the values were obtained:
Experiment in all cases: NCI tumour cell line growth inhibition, 48 h
KM12 colon = tested on: KM12 colon
OVCAR-8 ovarian = tested on: OVCAR-8 ovarian
HS 578T breast = tested on: HS 578T breast
HOP-62 NSCLC = tested on: HOP-62 NSCLC
TK-10 renal = tested on: TK-10 renal
SF-268 CNS = tested on: SF-268 CNS
NCI/ADR-RES ovarian = tested on: NCI/ADR-RES ovarian
EKVX NSCLC = tested on: EKVX NSCLC
SW-620 colon = tested on: SW-620 colon
HCC-2998 colon = tested on: HCC-2998 colon
SR leukemia = tested on: SR leukemia
NCI-H460 lung = tested on: NCI-H460 lung
SK-MEL-28 melanoma = tested on: SK-MEL-28 melanoma
K-562 leukemia = tested on: K-562 leukemia
HOP-92 NSCLC = tested on: HOP-92 NSCLC
UO-31 renal = tested on: UO-31 renal
SK-MEL-2 melanoma = tested on: SK-MEL-2 melanoma
HCT-116 colon = tested on: HCT-116 colon
MALME-3M melanoma = tested on: MALME-3M melanoma
M14 melanoma = tested on: M14 melanoma
IGROV1 ovarian = tested on: IGROV1 ovarian
MDA-MB-435 = tested on: MDA-MB-435
NCI-H522 lung = tested on: NCI-H522 lung
OVCAR-5 ovarian = tested on: OVCAR-5 ovarian
A549 NSCLC = tested on: A549 NSCLC
OVCAR-3 ovarian = tested on: OVCAR-3 ovarian
SNB-75 CNS = tested on: SNB-75 CNS
LOX IMVI melanoma = tested on: LOX IMVI melanoma
RXF 393 renal = tested on: RXF 393 renal
NCI-H226 lung = tested on: NCI-H226 lung
SF-295 CNS = tested on: SF-295 CNS
HT29 colon = tested on: HT29 colon
RPMI-8226 leukemia = tested on: RPMI-8226 leukemia
A498 renal = tested on: A498 renal
786-0 renal = tested on: 786-0 renal
MOLT-4 leukemia = tested on: MOLT-4 leukemia
CCRF-CEM leukemia = tested on: CCRF-CEM leukemia
SK-OV-3 ovarian = tested on: SK-OV-3 ovarian
CAKI-1 renal = tested on: CAKI-1 renal
U251 CNS = tested on: U251 CNS
HCT-15 colon = tested on: HCT-15 colon
SK-MEL-5 melanoma = tested on: SK-MEL-5 melanoma
OVCAR-4 ovarian = tested on: OVCAR-4 ovarian
T-47D breast = tested on: T-47D breast
SF-539 CNS = tested on: SF-539 CNS
SNB-19 CNS = tested on: SNB-19 CNS
HL-60(TB) leukemia = tested on: HL-60(TB) leukemia
ACHN renal = tested on: ACHN renal
BT-549 breast = tested on: BT-549 breast
COLO 205 colon = tested on: COLO 205 colon
DU-145 prostate = tested on: DU-145 prostate
NCI-H23 lung = tested on: NCI-H23 lung
UACC-257 melanoma = tested on: UACC-257 melanoma
SN12C renal = tested on: SN12C renal
MCF7 breast = tested on: MCF7 breast
UACC-62 melanoma = tested on: UACC-62 melanoma
MDA-MB-231 breast = tested on: MDA-MB-231 breast
PC-3 prostate = tested on: PC-3 prostate

Compound `CC1OC(OC2C(OC(=O)[C@]34CCC(C)(C)C[C@H]3C3=CC[C@@H]5[C@@]6(C)CC[C@H](OC7OC(CO)C(O)C(O)C7OC7OC(CO)C(O)C(O)C7O)C(C)(C)[C@@H]6CC[C@@]5(C)[C@]3(C)CC4)OCC(O)C2O)C(O)C(O)C1OC1OCC(O)C(O)C1O` (some centres not stated) has a TGI (KM12 colon) of 21.8 µM, a TGI (OVCAR-8 ovarian) of 38.9 µM and a TGI (HS 578T breast) of 40.2 µM. For the same compound, the TGI (HOP-62 NSCLC) was 30.8 µM, the TGI (TK-10 renal) was 21.7 µM and the TGI (SF-268 CNS) was 21.4 µM. It also gave a TGI (NCI/ADR-RES ovarian) of 29.1 µM, a TGI (EKVX NSCLC) of 18.6 µM and a TGI (SW-620 colon) of 39.4 µM. The TGI (HCC-2998 colon) was 4.79 µM, the TGI (SR leukemia) was 23.8 µM and the TGI (NCI-H460 lung) was > 67.4 µM. The TGI (SK-MEL-28 melanoma) was 6.04 µM, the TGI (K-562 leukemia) was 27.6 µM and the TGI (HOP-92 NSCLC) was 20.4 µM. It also gave a TGI (UO-31 renal) of 6.17 µM, a TGI (SK-MEL-2 melanoma) of 17.2 µM and a TGI (HCT-116 colon) of 44.8 µM. It also gave a TGI (MALME-3M melanoma) of 12.6 µM, a TGI (M14 melanoma) of 16.7 µM and a TGI (IGROV1 ovarian) of 44.9 µM. For the same compound, the TGI (MDA-MB-435) was 7.34 µM, the TGI (NCI-H522 lung) was 12.1 µM and the TGI (OVCAR-5 ovarian) was 21.7 µM. For the same compound, the TGI (A549 NSCLC) was 19.2 µM, the TGI (OVCAR-3 ovarian) was > 100 µM and the TGI (SNB-75 CNS) was 31 µM. For the same compound, the TGI (LOX IMVI melanoma) was 37.7 µM, the TGI (RXF 393 renal) was 25.4 µM and the TGI (NCI-H226 lung) was 26.2 µM. The TGI (SF-295 CNS) was 25.7 µM, the TGI (HT29 colon) was 19.8 µM and the TGI (RPMI-8226 leukemia) was 31.6 µM. The TGI (A498 renal) was 6.06 µM, the TGI (786-0 renal) was 24 µM and the TGI (MOLT-4 leukemia) was 46.3 µM. For the same compound, the TGI (CCRF-CEM leukemia) was 42.3 µM, the TGI (SK-OV-3 ovarian) was 31.9 µM and the TGI (CAKI-1 renal) was 18.3 µM. The TGI (U251 CNS) was 29.2 µM, the TGI (HCT-15 colon) was 32.1 µM and the TGI (SK-MEL-5 melanoma) was 28 µM. For the same compound, the TGI (OVCAR-4 ovarian) was 29.5 µM, the TGI (T-47D breast) was 42.3 µM and the TGI (SF-539 CNS) was > 100 µM. It also gave a TGI (SNB-19 CNS) of 28.9 µM, a TGI (HL-60(TB) leukemia) of 15.1 µM and a TGI (ACHN renal) of 24.5 µM. It also gave a TGI (BT-549 breast) of 23.7 µM, a TGI (COLO 205 colon) of 3.28 µM and a TGI (DU-145 prostate) of 24.8 µM. The TGI (NCI-H23 lung) was 24.5 µM, the TGI (UACC-257 melanoma) was 9.17 µM and the TGI (SN12C renal) was 9.27 µM. The TGI (MCF7 breast) was 29.3 µM, the TGI (UACC-62 melanoma) was 33.1 µM and the TGI (MDA-MB-231 breast) was 22.2 µM. For the same compound, the TGI (PC-3 prostate) was 25.8 µM.
Compound `Nc1cc(C(F)(F)F)c(-c2nc(N3CCOCC3)nc(N3CCOCC3)n2)cn1` has a GI50 (KM12 colon) of 0.835 µM, a TGI (KM12 colon) of 59.9 µM and a GI50 (OVCAR-8 ovarian) of 0.89 µM. For the same compound, the TGI (OVCAR-8 ovarian) was > 66.1 µM, the GI50 (HS 578T breast) was 0.231 µM and the TGI (HS 578T breast) was 1.46 µM. It also gave a GI50 (HOP-62 NSCLC) of 0.643 µM, a TGI (HOP-62 NSCLC) of 16.2 µM and a GI50 (TK-10 renal) of 0.11 µM. The TGI (TK-10 renal) was 1.17 µM, the GI50 (SF-268 CNS) was 0.476 µM and the TGI (SF-268 CNS) was > 72.5 µM. The TGI (NCI/ADR-RES ovarian) was > 23.2 µM, the GI50 (EKVX NSCLC) was 0.31 µM and the TGI (EKVX NSCLC) was 5.02 µM. The GI50 (SW-620 colon) was 0.921 µM, the TGI (SW-620 colon) was > 100 µM and the GI50 (HCC-2998 colon) was 0.633 µM. The TGI (HCC-2998 colon) was > 88 µM, the GI50 (SR leukemia) was 1.04 µM and the TGI (SR leukemia) was 28.4 µM. For the same compound, the GI50 (NCI-H460 lung) was 0.299 µM, the TGI (NCI-H460 lung) was > 53.3 µM and the GI50 (SK-MEL-28 melanoma) was 0.248 µM. The TGI (SK-MEL-28 melanoma) was 3.71 µM, the GI50 (K-562 leukemia) was 3.65 µM and the TGI (K-562 leukemia) was > 100 µM. For the same compound, the GI50 (HOP-92 NSCLC) was 0.139 µM, the TGI (HOP-92 NSCLC) was 0.765 µM and the GI50 (UO-31 renal) was 0.111 µM. The TGI (UO-31 renal) was 2.08 µM, the GI50 (SK-MEL-2 melanoma) was 0.618 µM and the TGI (SK-MEL-2 melanoma) was 8.68 µM. The GI50 (HCT-116 colon) was 0.605 µM, the TGI (HCT-116 colon) was > 100 µM and the GI50 (MALME-3M melanoma) was 0.0983 µM. For the same compound, the TGI (MALME-3M melanoma) was 0.561 µM, the GI50 (M14 melanoma) was 0.401 µM and the TGI (M14 melanoma) was 14.1 µM. The GI50 (IGROV1 ovarian) was 0.0916 µM, the TGI (IGROV1 ovarian) was 0.528 µM and the GI50 (MDA-MB-435) was 0.398 µM. The TGI (MDA-MB-435) was 5.15 µM, the GI50 (NCI-H522 lung) was 0.624 µM and the TGI (NCI-H522 lung) was > 83.9 µM. The GI50 (OVCAR-5 ovarian) was 0.192 µM, the TGI (OVCAR-5 ovarian) was > 100 µM and the GI50 (A549 NSCLC) was 0.416 µM. It also gave a TGI (A549 NSCLC) of 8.62 µM, a GI50 (OVCAR-3 ovarian) of 0.313 µM and a TGI (OVCAR-3 ovarian) of 11.2 µM. The GI50 (SNB-75 CNS) was 0.118 µM, the TGI (SNB-75 CNS) was 2.19 µM and the TGI (LOX IMVI melanoma) was > 35.1 µM. For the same compound, the GI50 (RXF 393 renal) was 0.241 µM, the TGI (RXF 393 renal) was 1.07 µM and the GI50 (NCI-H226 lung) was 0.384 µM. The TGI (NCI-H226 lung) was 12.2 µM, the GI50 (SF-295 CNS) was 0.226 µM and the TGI (SF-295 CNS) was 1.75 µM. The GI50 (HT29 colon) was 0.214 µM, the TGI (HT29 colon) was 36 µM and the GI50 (RPMI-8226 leukemia) was 0.709 µM. The TGI (RPMI-8226 leukemia) was > 75.9 µM, the GI50 (A498 renal) was 0.14 µM and the TGI (A498 renal) was 0.45 µM. It also gave a GI50 (786-0 renal) of 0.482 µM, a TGI (786-0 renal) of 6.33 µM and a GI50 (MOLT-4 leukemia) of 0.426 µM. The TGI (MOLT-4 leukemia) was 39.8 µM, the GI50 (CCRF-CEM leukemia) was 2.97 µM and the TGI (CCRF-CEM leukemia) was > 100 µM. The GI50 (SK-OV-3 ovarian) was 0.131 µM, the TGI (SK-OV-3 ovarian) was 0.598 µM and the GI50 (CAKI-1 renal) was 0.502 µM. For the same compound, the TGI (CAKI-1 renal) was > 71.7 µM, the GI50 (U251 CNS) was 1.22 µM and the TGI (U251 CNS) was 44.2 µM. For the same compound, the GI50 (HCT-15 colon) was 0.318 µM, the TGI (HCT-15 colon) was > 56.1 µM and the GI50 (SK-MEL-5 melanoma) was 0.384 µM. The TGI (SK-MEL-5 melanoma) was 2.54 µM, the GI50 (OVCAR-4 ovarian) was 0.667 µM and the TGI (OVCAR-4 ovarian) was > 31.1 µM. It also gave a GI50 (T-47D breast) of 0.0328 µM, a TGI (T-47D breast) of 0.347 µM and a GI50 (SF-539 CNS) of 0.539 µM. It also gave a TGI (SF-539 CNS) of 3.54 µM, a GI50 (SNB-19 CNS) of 2.11 µM and a TGI (SNB-19 CNS) of 44.5 µM. The GI50 (HL-60(TB) leukemia) was 0.381 µM, the TGI (HL-60(TB) leukemia) was > 84.1 µM and the GI50 (ACHN renal) was 0.403 µM. The TGI (ACHN renal) was > 100 µM, the GI50 (BT-549 breast) was 0.265 µM and the TGI (BT-549 breast) was 3.84 µM. For the same compound, the GI50 (COLO 205 colon) was 0.265 µM, the TGI (COLO 205 colon) was 10 µM and the GI50 (DU-145 prostate) was 0.475 µM. The TGI (DU-145 prostate) was > 100 µM, the GI50 (NCI-H23 lung) was 0.446 µM and the TGI (NCI-H23 lung) was > 100 µM. It also gave a GI50 (UACC-257 melanoma) of 0.293 µM, a TGI (UACC-257 melanoma) of 2.98 µM and a GI50 (SN12C renal) of 0.416 µM. The TGI (SN12C renal) was > 48.1 µM, the GI50 (MCF7 breast) was 0.113 µM and the TGI (MCF7 breast) was 19 µM. The GI50 (UACC-62 melanoma) was 0.202 µM, the TGI (UACC-62 melanoma) was 1.38 µM and the GI50 (MDA-MB-231 breast) was 0.703 µM. The TGI (MDA-MB-231 breast) was 40.6 µM, the GI50 (PC-3 prostate) was 0.258 µM and the TGI (PC-3 prostate) was > 100 µM.
